Measurements reported in patent US11999782B2, “Therapeutic agents for the treatment of diseases associated with undesired cell proliferation” (Fundació Privada Institutció Catalana de Recerca I Estudis …, priority 2009, dated 2024).

Columns and labels:
[1] = system: STAT3 phosphorylation (JAK-STAT pathway); assay: p-STAT3 Western blotting in GBM1 neurospheres; type: cell-based, human; details: for phosphorylation of STAT3: 20 ng/ml LIF (time course) or 100 pM TGFβ1 for 4 hours
Method: FIG. 5. TGFβ induces the LIF-JAK-STAT pathway in GEM neurospheres derived from patients. (A) The levels of p-STAT3 and STAT3 were determined by means of Western blotting of neurospheres of the sample of GBM1 treated with 20 ng/ml LIF for the indicated time periods. (B) The neurospheres of the sample of GBM1 were treated with 20 ng/ml LIF and/or 0.5 pM P6 for 15 minutes and the levels of total p-STAT3 and STAT3 were determined by means of Western blotting. (C) The neurospheres of the sample of GBM1 were treated with 100 pM TGFβ1 or the 2 pM TβRI inhibitor for 4 hours in the absence of EFG and FGF and the levels of p-STAT3, STAT3, p-Smad2, Smad2 and α-tubulin were determined by means of Western blotting. (D) the neurospheres of the sample of GBM1 were treated with 100 pM TGFβ1, 0.5 μM P6 or the blocking antibody against LIF for 4 hours in the absence of EGF and FGF and the levels of total p-STAT3 and STAT3 were determined by means of Western blotting.
Genomic DNA of U373MG was used to amplify the −634/+32 region of the human LIF promoter which was cloned into the pGL2-basic luciferase vector. The deletion constructs (−267/+32), and (−73/+32) were generated by means of digestion of the construct (−634/+32). Two point mutations were introduced in positions −183 bp and −184 bp in the construct (−267/+32) to interrupt the Smad binding element (SBE) and generate the construct (−267/+32) mutSBE. TGFβ1, TGFβ2, TGFβ3 (R&D Systems), TβRI inhibitor (SB431542, Tocris), LIF (Chemicon), the neutralizing antibodies against LIF (R&D), JAK inhibitor (tetracyclic pyridone 6 (P6) Calbiochem), the assembly of SMART siRNAs targeted to Smad2, Smad3 and Smad4 (Dharmacon), and the control siRNA siGlo (Dharmacon) were used at the indicated concentrations. The antibodies specific against p-Smad2, Smad2, p-STAT3 (p-Tyr705) and total STAT3 (Cell Signalling) and against Smad2, Smad3 and Smad4 (Hata et al., (2000) Cell 100, 229-240) were used for Western blotting.
In order to distinguish whether the LIF signaling pathway is functional in GEM neurospheres, the neurospheres were treated with recombinant LIF and the levels of phosphorylation of the downstream substrate of the LIF receptor complex, STAT3, were determined. […] Furthermore, the induction of p-STAT3 was prevented by the presence of a pharmacological JAK-specific, tetracyclic pyridone 6 (P6) (Pedranzini et al., 2006, Cancer Res, 66: 9714-9721; Thompson et al., 2002, Bioorg Med Chem Lett, 12:1219-1223) (FIG. 5B). […] It was decided to assess whether LIP was mediating the induction of p-STAT3 by TGFβ. For this purpose, a neutralizing antibody against LIF was used to specifically block the effect of secreted LIP on cells treated with TGFβ. The presence of the neutralizing antibody of LIP decreased the induction of p-STAT3 by TGFβ. Furthermore, the levels of p-STAT3 in cells treated with TGFβ were repressed by means of the treatment with P6 (FIG. 5D).

[2] = system: GICs (glioma initiating cells) / GBM neurospheres; assay: Self-renewal assay of GBM neurospheres (GICs derived from patients); type: cell-based, human; details: for number of newly formed neurospheres / total number of cells: GBM1, GBM2, GBM3 neurosphere cells, 7 days in the absence of growth factors, 100 pM TGFβ1 or 20 ng/ml LIF
Method: FIG. 1. Effect of TGFβ on the self-renewal of GIC derived from patients. (A) Representative images of PCTCs and neurospheres of GBM generated from samples of 3 different patients with GBM (GBM1, GBM2, GBM3). (B) Musashi-1 (Msi-1), Sox2, Nestin and β-actin were determined by means of RT-PCR analysis of PCTCs and neurospheres of 3 samples of human GBM. (C) 100,000 neurosphere (nsph.) or PCTC cells obtained from samples of GBM1, GBM2 and GBM3 tumors were intracranially inoculated in three Balbc nu/nu mice in each case. Magnetic resonance imaging (MRI) studies were performed on days 30-40 in each mouse. The images represent an example of mice inoculated with neurosphere or PCTC cells obtained from GBM1. The mice were weighed twice a week. The graph represents mice inoculated with cells derived from GBM1. (D and E) Neurosphere cells of the indicated GBMs were incubated in the absence of growth factors with 100 pM TGFβ1 and/or 2 μM TβRI inhibitor for 7 days and the number of newly formed neurospheres (D) and the total number of cells (E) were determined. (F) Representative images of GBM1 neurospheres treated as indicated in D and E.
FIG. 6. LIF mediates the increase of self-renewal of GIC by TGFβ. (A, B) GBM1, GBM2 and GBM3 neurosphere cells were treated with 100 pM TGFβ1, 20 ng/ml LIF and/or anti-LIF neutralizing antibody and 0.5 pM P6 in the absence of EGF and FGF and the number of newly formed neurospheres (A) or the total number of cells (B) was determined. (C) Representative images of GBM1 neurospheres treated as indicated in A and B.
The self-renewal of the neurospheres was evaluated by seeding an identical number of cells at a very low density in wells of a 96-well plate. The cells were treated, in the absence of growth factors, with the indicated compounds and the total number of new neurospheres formed after 7 days in culture was counted (Lee et al. (2008) Cancer Cell 13, 69-80; Reynolds and Weiss, (1996) Dev Biol 175, 1-13; Seaberg and van der Kooy, (2002) J Neurosci 22, 1784-1793).
It was decided to evaluate the effect of TGFβ on the capacity for self-renewal of GICs following a well described protocol based on the capacity of GICs to generate neurospheres (Reynolds and Weiss, 1996, Dev Biol. 175:1-13; Seaberg and van der Kooy, 2002, J Neurosci 22:1784-1793). The neurospheres derived from patients were disassociated into individual cells, treated with TGFβ or left untreated for 7 days in the absence of growth factors and the newly formed neurospheres and the total number of cells were counted. Following this protocol, the effect of TGFβ on the capacity for self-renewal of the GICs derived from three different patients was evaluated. […] These effects were blocked when an TGFβ I receptor inhibitor (TβRI) was added at the same time as TGFβ.
It was decided to assess whether LIF and JAK-STAT pathway mediated the increase of self-renewal of GICs by TGFβ. For this purpose, the neutralizing antibody against LIP and P6 was used to specifically block the effect of the secreted LIP on cells treated with TGFβ. The neurospheres were disassociated into individual cells and were treated with TGFβ, recombinant LIF, anti-LIF antibody and/or P6. The newly formed neurospheres and the total number of cells were counted. […] The treatment with the neutralizing antibody of LIP decreased the induction of the self-renewal of GICs by TGFβ.

Row | Molecule | effect on the induction of p-STAT3 by TGFβ ([1]; 100 pM TGFβ1, 4 hours, absence of EGF and FGF, 2 pM TβRI inhibitor, 0.5 μM P6 or blocking antibody against LIF) | effect of the isolated inhibitor on number of neurospheres and total number of cells ([2]; 2 μM TβRI inhibitor without TGFβ, 7 days, absence of growth factors) | effect on the induction of self-renewal of GICs by TGFβ (number of neurospheres, total number of cells) ([2]; added with 100 pM TGFβ1, 2 μM TβRI inhibitor, anti-LIF neutralizing antibody or 0.5 pM P6, absence of EGF and FGF) | phosphorylation of STAT3 [1] | number of newly formed neurospheres [2] | total number of cells [2]
1 | NC(=O)c1ccc(-c2nc(-c3ccc4c(c3)OCO4)c(-c3ccccn3)[nH]2)cc1 [TβRI inhibitor, SB431542, reference compound] | prevented that effect | no significant effect | blocked | – | – | –
2 | LIF: recombinant leukemia inhibitory factor, an IL-6 type cytokine (Chemicon) | – | – | – | induced a quick phosphorylation of STAT3 | increased | increased
3 | TGFβ: TGFβ1 (R&D Systems), used at 100 pM according to the figure legends | – | – | – | induced the phosphorylation of STAT3 | significantly increased | increased
